Results on 3 compounds are retold here after patent US4247542A, “A-40104 Antibiotics and process for production thereof” (priority 1978, dated 1981).

Data set [1] relates to Pasteurella multocida (turkey). The data set can be described thus: standard in vitro test against Pasteurella. Format: cell-based. An excerpt: Another veterinary aspect of this invention is the activity of the A-40104 antibiotics against Pasteurella species. P. multocida, for example, is a causative agent of respiratory infection in cattle, poultry, and swine. P. hemolytica is a major cause of respiratory disease in cattle. The activity of A-40104 factor A and its dihydro derivative against Pasteurella, as determined by standard in vitro tests, is summarized in Table X.

Data set [2] has as its system Spiroplasma citri. The data set can be described thus: in vitro test against Spiroplasma citri. Format: cell-based. To be noted: levels as low as, read-out: level inhibiting S. citri. An excerpt:
Another important aspect of this invention is the activity of the A-40104 antibiotics against Spiroplasmas. Spiroplasma citri is the causative agent of citrus-stubborn disease; another Spiroplasma, corn-stunt Spiroplasma, affects the growth of corn. In in vitro tests against Spiroplasma citri A-40104 factor A and its dihydro derivative inhbit S. citri when applied at levels as low as 0.01 ppm.

Data set [3] has as its system powdery mildew. The data set is described as follows: control of powdery mildew on barley plants. Format: in vivo. To be noted: soil drench at 100 ppm. An excerpt: (§1) The A-40104 antibiotics are also active against plant pathogens. […] The systemic activity of these antibiotics is especially advantageous in the control of plant pathogens or Spiroplasmas.
For data set [4], the system named is powdery mildew. The data set is described as follows: control of powdery mildew on bean plants. Format: in vivo. To be noted: soil drench at 100 ppm.
Source text: as §1

The subject of data set [5] is Eubacterium aerofaciens. The data set is described as follows: standard agar-dilution test, anaerobic bacteria. The data set is classed as cell-based. To be noted: Collinsella aerofaciens, read after 24 hours. An excerpt: Table VIII summarizes the activity of A-40104 factor A, as determined by the standard agar-dilution test.
*MIC determined by the agardilution method. Endpoints were read after 24

The test system of data set [6] is Mycoplasma gallisepticum. The data set can be described thus: in vitro broth-dilution MIC, mycoplasma. Format: cell-based. An excerpt: (§2) The minimal inhibitory concentrations (MIC's) of A-40104 factor A; 19,20-dihydro-A-40104 factor A; and the tetraacetyl derivative of A-40104A against various mycoplasma species, as determined by in vitro broth-dilution studies, are summarized in Table IX.

In data set [7] the test system is Mycoplasma synoviae. The data set can be described thus: in vitro broth-dilution MIC, mycoplasma. Format: cell-based.
Source text: as §2

Data set [8] in a line: solubility.
Data set [9] relates to swine dysentery. The settings on record: W. E. Brown et al. U.S. Pat. No. 4,041,175; cited from earlier work.

Converted amounts (≈) assume the structure as drawn.

Consider `CCC1(C)CC(OC(=O)CO[C@@H]2OC[C@@H](O)[C@H](O)[C@H]2O)C2(C)C(C)CCC3(CCC(=O)C32)C(C)C1O` (stereo partly shown) [19,20-dihydro-A-40104 factor A, 19,20-Dihydro-A-40104 Factor A], for which the figures for the MIC in [1] and in [2] were 12.5 µg/mL (≈ 24.4 µM) and no more than 0.01 µg/mL, respectively.
Take `C=CC1(C)CC(OC(=O)CO[C@@H]2OC[C@@H](O)[C@H](O)[C@H]2O)C2(C)C(C)CCC3(CCC(=O)C32)C(C)C1O` (stereo partly drawn) [A-40104 factor A, β,D-xylopyranosyl acetal derivative of pleuromutilin]: the “control of powdery mildew” value in data set [3] and in data set [4] was “control of powdery mildew is obtained” throughout. Further, the MIC in [1] is 12.5 µg/mL (≈ 24.5 µM); in [5] it was 16 µg/mL (≈ 31.3 µM); in data set [6], less than 0.78 µg/mL; in data set [7], less than 0.78 µg/mL. Also, the solubility in chloroform entry in data set [8] (chloroform) is recorded as “partially soluble”. In addition, the solubility in alcohols entry in data set [8] (ethanol) and in data set [8] (methanol) was “soluble” in each case. Also, the solubility in water result in data set [8] (water) is “insoluble”.
As to `C=C[C@]1(C)C[C@@H](OC(=O)CO)[C@]2(C)[C@H](C)CC[C@]3(CCC(=O)[C@H]32)[C@@H](C)[C@@H]1O` [A-40104 factor C, pleuromutilin], in data set [9], the “effect in swine dysentery” value was “effective in the treatment of swine dysentery”.
